# Patent publication US9879002B2, “PDE10 inhibitors and related compositions and methods” (Omeros Corporation, priority 2015, dated 2018)
# pIC50: −log10 of the molar value. Read-outs that look alike come from different tables or passages of the source.
# Columns and labels:
# [1] = Solubility assay in simulated Intestinal Fluid pH 7.5; format: physicochemical; details: fassgf or other biorelevant, kinetic from dmso stock, shaken 24 hours at room temperature, from 10 mM DMSO stock, detection limit approximately 1 μM, read-out: Solubility test results: Conc. (μM), pH 7.5 (IF)
# Protocol: Solubility of each compound was measured by adding 4 μl of a 10 mM DMSO compound stock to 396 μl buffer (either a simulated Gastric Fluid pH 1.2 (0.2% NaCl, 0.7% HCl) or simulated Intestinal Fluid pH 7.5 (0.68% KHPO4, pH with NaOH)). This was shaken for 24 hours at room temperature, spun at 14,000 rpm for 5 minutes, and the supernatant was transferred into a clean eppendorf tube. The absorption spectra of the compound-containing supernatant were measured from 220 to 400 nm and compared with the absorption spectra of a 10 μM acetonitrile stock of the same compound. The concentration of the compound in the supernatant was calculated by comparing the absorbance maximum of the compound in the simulated buffer to that in acetonitrile.
# [2] = molecular target: PDE10 (Homo sapiens, UniProt Q9Y233); experiment: PDE10 biochemical assay (scintillation proximity assay, [3H]-cGMP substrate)
# Chain of PDE10 (Homo sapiens, UniProt Q9Y233) (Q9Y233 whole entry): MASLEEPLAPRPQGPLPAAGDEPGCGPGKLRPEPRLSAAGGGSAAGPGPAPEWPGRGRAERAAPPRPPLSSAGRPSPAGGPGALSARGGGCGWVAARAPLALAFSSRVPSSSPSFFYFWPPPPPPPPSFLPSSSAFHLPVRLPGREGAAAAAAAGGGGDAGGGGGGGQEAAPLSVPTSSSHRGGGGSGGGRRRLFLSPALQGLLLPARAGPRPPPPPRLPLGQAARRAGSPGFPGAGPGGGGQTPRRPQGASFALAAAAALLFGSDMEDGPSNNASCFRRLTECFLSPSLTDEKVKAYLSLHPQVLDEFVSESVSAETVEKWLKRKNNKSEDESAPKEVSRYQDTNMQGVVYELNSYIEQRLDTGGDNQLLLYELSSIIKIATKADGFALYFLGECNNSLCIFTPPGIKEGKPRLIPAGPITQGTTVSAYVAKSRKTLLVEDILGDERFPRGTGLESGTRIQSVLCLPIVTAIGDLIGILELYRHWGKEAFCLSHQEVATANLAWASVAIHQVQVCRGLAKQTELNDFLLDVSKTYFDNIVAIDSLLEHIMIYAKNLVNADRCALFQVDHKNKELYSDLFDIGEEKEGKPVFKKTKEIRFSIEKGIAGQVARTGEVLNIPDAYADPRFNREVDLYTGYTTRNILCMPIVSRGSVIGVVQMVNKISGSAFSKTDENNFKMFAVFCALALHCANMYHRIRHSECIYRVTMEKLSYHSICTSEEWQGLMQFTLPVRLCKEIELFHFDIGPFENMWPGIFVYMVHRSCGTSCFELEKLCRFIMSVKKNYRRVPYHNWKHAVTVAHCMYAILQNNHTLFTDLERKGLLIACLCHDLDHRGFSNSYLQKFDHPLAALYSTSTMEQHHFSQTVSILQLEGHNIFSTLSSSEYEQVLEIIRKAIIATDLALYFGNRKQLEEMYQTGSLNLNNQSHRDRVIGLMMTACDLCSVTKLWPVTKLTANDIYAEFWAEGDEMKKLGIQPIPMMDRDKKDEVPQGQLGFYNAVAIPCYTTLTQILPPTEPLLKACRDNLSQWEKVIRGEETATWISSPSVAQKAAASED
# Protocol: The phosphodiesterase (PDE) activity was measured using a scintillation proximity assay (SPA) with [^3H]-cGMP as the substrate. Purified PDE10 was stored in 40 mM Tris-Cl (pH 8.0)/100 mM NaCl/0.04% Tween-20/20% Glycerol/3 mM DTT and then used to prepare a 10×PDE solution in 50 mM Tris-Cl (pH 7.5)/8.3 mM MgCl2/1.7 mM EGTA. Assays contained (final concentrations): 50 mM Tris-Cl (pH 7.5)/8.3 mM MgCl2/1.7 mM EGTA/0.5 mg/ml BSA/1% DMSO and 2 ng PDE10 in a final volume of 0.1 mL. Inhibition was evaluated at 8 concentrations in duplicate. Reactions were initiated by addition of enzyme and were terminated after 20 minutes at 30° C. by the addition of 50 μl of SPA beads containing Zn^++. The mixture was shaken, allowed to settle for at least 1 hour, and counted in a Wallac plate counter. Results (net cpm) were fitted to a four parameter logistic model using Excel Solver®.
# [3] = molecular target: T1, PDE10 (Mus musculus, UniProt Q8CA95); details: cited from Soderling and Beavo 2000; read-out: IC50 (50% inhibitory concentration); cited from earlier work
# T1 sequence (Q8CA95 1-790): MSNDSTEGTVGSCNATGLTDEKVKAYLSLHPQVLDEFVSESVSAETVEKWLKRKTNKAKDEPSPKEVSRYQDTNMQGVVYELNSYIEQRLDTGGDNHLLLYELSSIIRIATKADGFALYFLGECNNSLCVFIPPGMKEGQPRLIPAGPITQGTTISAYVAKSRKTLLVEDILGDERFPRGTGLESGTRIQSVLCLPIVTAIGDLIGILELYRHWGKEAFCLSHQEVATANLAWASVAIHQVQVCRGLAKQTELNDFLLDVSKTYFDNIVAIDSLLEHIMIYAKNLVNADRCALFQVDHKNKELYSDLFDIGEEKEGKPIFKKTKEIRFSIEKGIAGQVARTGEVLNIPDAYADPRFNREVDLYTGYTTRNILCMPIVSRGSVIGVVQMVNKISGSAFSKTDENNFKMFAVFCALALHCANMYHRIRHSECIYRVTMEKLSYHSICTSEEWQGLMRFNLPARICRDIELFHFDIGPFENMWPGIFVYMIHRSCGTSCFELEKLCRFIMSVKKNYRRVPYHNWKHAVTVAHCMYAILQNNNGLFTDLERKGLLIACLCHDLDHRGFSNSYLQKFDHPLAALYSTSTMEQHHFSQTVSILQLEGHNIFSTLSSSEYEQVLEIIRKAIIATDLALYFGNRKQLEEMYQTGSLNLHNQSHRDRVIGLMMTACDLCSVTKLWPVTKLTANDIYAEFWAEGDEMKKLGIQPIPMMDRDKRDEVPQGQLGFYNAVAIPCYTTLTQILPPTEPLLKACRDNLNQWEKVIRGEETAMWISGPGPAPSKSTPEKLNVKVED
# [4] = SPA, [3H]-cGMP, 20 minutes at 30° C., 8 concentrations in duplicate, read-out: Average IC50
# [5] = text statement on the PDE10 biochemical assay, read-out: IC50
smiles,measurement,setting,value
"CCOC(C(=O)c1ccc(-c2cc(OC)c(Cl)c(OC)c2)o1)c1ccc(-c2nnc(CO)s2)cc1 (centres unmarked) [Compound 2, 1-(5-(4-chloro-3,5-dimethoxyphenyl)furan-2-yl)-2-ethoxy-2-(4-(5-(hydroxymethyl)-1,3,4-thiadiazol-2-yl)phenyl)ethan-1-one]",solubility at 24 h,[1],5.8 µM
same,pIC50,[2]; [4],8.89
same,pIC50,[2]; [5],≥ 6.00
"CCOC(C(=O)c1ccc(-c2cc(OC)c(Cl)c(OC)c2)o1)c1ccc(-c2nnc(C)s2)cc1 (centres unmarked) [Compound A, 1-(5-(4-chloro-3,5-dimethoxyphenyl)furan-2-yl)-2-ethoxy-2-(4-(5-methyl-l,3,4-thiadiazol-2-yl)phenyl)ethan-1-one, reference compound]",solubility at 24 h,[1],< 1 µM
"CCOC(C(=O)c1ccc(-c2cc(O)c(Cl)c(OC)c2)o1)c1ccc(-c2nnc(C)s2)cc1 (centres unmarked) [Compound 1, 1-[5-(4-chloro-3-hydroxy-5-methoxyphenyl)furan-2-yl]-2-ethoxy-2-[4-(5-methyl-1,3,4-thiadiazol-yl)phenyl]ethanone]",solubility at 24 h,[1],2.5 µM
same,pIC50,[2]; [4],7.42
same,pIC50,[2]; [5],≥ 6.00
"CCOC(c1ccc(-c2nnc(C)s2)cc1)C(O)c1ccc(-c2cc(OC)c(Cl)c(OC)c2)o1 (centres unmarked) [Compound 4, 1-(5-(4-chloro-3,5-dimethoxyphenyl)furan-2-yl)-2-ethoxy-2-(4-(5-methyl-1,3,4-thiadiazol-2-yl)phenyl)ethan-1-ol]",solubility at 24 h,[1],2.5 µM
same,pIC50,[2]; [4],6.90
same,pIC50,[2]; [5],≥ 6.00
CC(C)Cn1c(=O)n(C)c(=O)c2[nH]cnc21 [IBMX],pIC50,[3],5.59
"CCOC(C(=O)c1ccc(-c2cc(OC)c(Cl)c(O[C@H]3O[C@H](C(=O)O)[C@@H](O)[C@H](O)[C@H]3O)c2)o1)c1ccc(-c2nnc(C)s2)cc1 (stereo partly drawn) [Compound 3, (2S,3S,4S,5R,6R)-6-(2-chloro-5-(5-(2-ethoxy-2-(5-methyl-1,3,4-thiadiazol-2-yl)phenyl)acetyl)furan-2-yl-methoxyphenoxy)-3,4,5-trihydroxytetrahydro-2H-pyran-2-carboxylic acid]",solubility at 24 h,[1],78.3 µM
same,pIC50,[2]; [4],6.19
same,pIC50,[2]; [5],≥ 6.00
